Data reported in patent US4175081A, “5-Substituted thiadiazole ureas” (priority 1977, dated 1979).

Legend:
[1] = system: Bean (BN); experiment: Post-emergence herbicide test; format: in vivo, Phaseolus vulgaris var. Black Valentine; settings: Phaseolus vulgaris, post-emergence, 336 h, two weeks after treatment
Method in brief: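 Bean seedlings (Phaseolus vulgaris var. Black Valentine) were grown in potting soil in 3' pots until the primary leaves expanded. They were then sprayed under a hood with a removable belt and fixed nozzle, using 50 ml formulations. Afterward they were returned to the greenhouse and watered only by sub-irrigation. Percent control was judged visually two weeks after treatment.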

[2] = system: Barnyard grass (BG); experiment: Post-emergence herbicide test; format: in vivo; settings: Echinochloa crus-galli, 336 h, two weeks after treatment
Method in brief: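 Greenhouse pot-grown barnyard grass seedlings sprayed post-emergence at 8 lbs active compound per acre (some at 4 lbs/acre) in 38 gallons per acre, then sub-irrigated. Injury or control rated visually two weeks after treatment.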

[3] = system: Crabgrass (CG); experiment: Pre-emergence herbicide test; format: in vivo, Digitaria sanquinalis; settings: Digitaria sanguinalis, pre-emergence, 336 h, two weeks after treatment
Method in brief: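 Crabgrass (Digitaria sanquinalis) was surface seeded in 3' plastic pots of potting soil, covered with screened soil, and watered by sub-irrigation in greenhouse trays. Pots were seeded one day before spraying in a hood with a moving belt and fixed nozzle. Plants stayed in the greenhouse on sub-irrigation, and pre-emergence control was rated visually two weeks after treatment.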

[4] = system: Cotton (CT); experiment: Pre-emergence herbicide test; format: in vivo, Gossypium hirsutum var. DPL smooth leaf; settings: Gossypium hirsutum, 336 h, two weeks after treatment
Method in brief: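 Visual injury/control ratings were taken at two weeks post-spray. Pots seeded a day earlier received compound pre-emergence at 8 lbs/acre, or 4 lbs/acre, in a 38 gallon/acre spray volume, and were then held in the greenhouse, watered only from below.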

[5] = system: Corn (CN); experiment: Pre-emergence herbicide test; format: in vivo; settings: Zea mays, 336 h, two weeks after treatment
Method in brief: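 Visual injury/control ratings were made 2 weeks post-spray on corn pots seeded (4 seeds, seed-diameter depth) the day before treatment. Application was a belt-hood spray of 38 gal/acre delivering 8 lbs active per acre, with a 4 lbs/acre rate also formulated. Watering was by sub-irrigation throughout.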

[6] = system: Amaranth pigweed (PW); experiment: Post-emergence herbicide test; format: in vivo, Amaranthus retroflexus; settings: 336 h, two weeks after treatment
Method in brief: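 Visual injury or control ratings were made two weeks after spraying, with greenhouse watering by sub-irrigation only. Treatment was post-emergence, when pigweed seedlings had 1 or 2 true leaves, at 8 lbs active compound per acre (4 lbs/acre formulations also made) in a 38 gallons-per-acre spray volume.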

[7] = system: Johnson grass (JG); experiment: Post-emergence herbicide test; format: in vivo, Sorgum helepense; settings: Sorghum halepense, 336 h, two weeks after treatment
Method in brief: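 Visual injury or control scores taken 2 weeks after a post-emergence spray of pot-grown plants. Application was 8 lbs/acre (or 4 lbs/acre) in 38 gal/acre. Plants were held in the greenhouse with sub-irrigation only.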

[8] = system: Turnip (TP); experiment: Post-emergence herbicide test; format: in vivo, Brassica sp.; settings: Brassica rapa, post-emergence, 336 h, two weeks after treatment
Method in brief: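 A greenhouse post-emergence herbicide test on turnip. Seeds were sown on the surface of potting soil in 3' plastic pots, lightly covered with screened soil and watered from below. Planting was timed so seedlings had 1 or 2 true leaves above the cotyledons at spraying, done in a hood with a fixed nozzle. Control or injury was scored by eye after two weeks.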

[9] = system: Bean (BN); experiment: Pre-emergence herbicide test; format: in vivo, Phaseolus vulgaris var. Black Valentine; settings: Phaseolus vulgaris, 336 h, two weeks after treatment
Method in brief: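 Visual injury/control ratings were taken two weeks post-spray on sub-irrigated Phaseolus vulgaris var. Black Valentine. Pots were sown a day before treatment. Pre-emergence spray delivered 8 lbs actual compound per acre (or 4 lbs/acre) at 38 gallons per acre.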

[10] = system: Crabgrass (CG); experiment: Post-emergence herbicide test; format: in vivo, Digitaria sanquinalis; settings: Digitaria sanguinalis, post-emergence, 336 h, two weeks after treatment
Method in brief: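 Crabgrass (Digitaria sanquinalis) was surface seeded individually in 3' plastic pots of potting soil, covered with screened soil, and watered by sub-irrigation in greenhouse trays. Planting was staggered so seedlings reached the target stage together. Post-emergence sprays were applied in a hood with a removable belt and fixed nozzle, and control was visually rated two weeks after treatment.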

[11] = system: Turnip (TP); experiment: Pre-emergence herbicide test; format: in vivo, Brassica sp.; settings: Brassica rapa, pre-emergence, 336 h, two weeks after treatment
Method in brief: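 In this pre-emergence greenhouse test, turnip was seeded on the surface of potting soil in 3' plastic pots, lightly covered with screened soil, and watered from below. One day later the pots were sprayed in a belt-fed spray hood. Watering continued only by sub-irrigation, and percent control was visually scored two weeks after treatment.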

[12] = system: Amaranth pigweed (PW); experiment: Pre-emergence herbicide test; format: in vivo, Amaranthus retroflexus; settings: 336 h, two weeks after treatment
Method in brief: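 Visual injury or control ratings were made at two weeks on pre-emergence pots, sub-irrigated in the greenhouse. Seeds were sown a day before a hood spray delivering 8 lbs/acre (or 4 lbs/acre) of compound in 38 gallons per acre.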

[13] = system: Cotton (CT); experiment: Post-emergence herbicide test; format: in vivo, Gossypium hirsutum var. DPL smooth leaf; settings: Gossypium hirsutum, post-emergence, 336 h, two weeks after treatment
Method in brief: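 This greenhouse post-emergence test measured how well spray treatments controlled cotton. Seedlings of Gossypium hirsutum var. DPL smooth leaf, with expanded cotyledons and a first true leaf 1' in length, were sprayed with 50 ml formulations in a belt-fed spray hood. They were then returned to the greenhouse and watered only by sub-irrigation. Injury was scored visually as % control after two weeks.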

[14] = system: Johnson grass (JG); experiment: Pre-emergence herbicide test; format: in vivo, Sorgum helepense; settings: Sorghum halepense, 336 h, two weeks after treatment
Method in brief: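 Visual injury or control rating two weeks post-treatment, after pre-emergence spray of 8 or 4 lbs active per acre (38 gal/acre) onto pots sown the previous day. Greenhouse watering by sub-irrigation only.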

[15] = system: Barnyard grass (BG); experiment: Pre-emergence herbicide test; format: in vivo; settings: Echinochloa crus-galli, 336 h, two weeks after treatment
Method in brief: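 Greenhouse pre-emergence spray test: pots seeded one day before treatment received compound at rates of 8 or 4 lb/acre (38 gal/acre). Visual injury/control scores for Echinochloa crus-galli taken at two weeks, with watering by sub-irrigation only.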

[16] = system: Corn (CN); experiment: Post-emergence herbicide test; format: in vivo; settings: Zea mays, 336 h, two weeks after treatment
Method in brief: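 Greenhouse seedlings grown in potting soil and sprayed post-emergence at 8 lbs compound/acre (formulations also made for 4 lbs/acre) in 38 gallons/acre spray volume. Watering by sub-irrigation only. Injury or control rated visually two weeks after treatment.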

Structure (SMILES): CCCSc1nnc(N(C)C(=O)NC)s1 [Example 69]
- pest or weed control at 2241.7 g/ha ([1]; 2 lb/acre): 100%
- pest or weed control at 4483.4 g/ha ([1]; 4 lb/acre): 100%
- pest or weed control at 8966.8 g/ha ([1]; 8 lb/acre): 100%
- pest or weed control at 2241.7 g/ha ([2]; 2 lb/acre): 90%
- pest or weed control at 4483.4 g/ha ([2]; 4 lb/acre): 80%
- pest or weed control ([3]; 2 lb/acre): 90%
- pest or weed control at 4483.4 g/ha ([3]; 4 lb/acre): 90%
- pest or weed control at 8966.8 g/ha ([3]; 8 lb/acre): 100%
- pest or weed control at 2241.7 g/ha ([4]; 2 lb/acre): 50%
- pest or weed control at 4483.4 g/ha ([4]; 4 lb/acre): 30%
- pest or weed control at 8966.8 g/ha ([4]; 8 lb/acre): 90%
- pest or weed control at 2241.7 g/ha ([5]; 2 lb/acre): 30%
- pest or weed control at 4483.4 g/ha ([5]; 4 lb/acre): 0%
- pest or weed control at 8966.8 g/ha ([5]; 8 lb/acre): 50%
- pest or weed control at 4483.4 g/ha ([6]; 4 lb/acre): 100%
- pest or weed control at 8966.8 g/ha ([6]; 8 lb/acre): 100%
- pest or weed control ([7]; 2 lb/acre): 70%
- pest or weed control at 4483.4 g/ha ([7]; 4 lb/acre): 80%
- pest or weed control at 8966.8 g/ha ([7]; 8 lb/acre): 100%
- pest or weed control at 2241.7 g/ha ([8]; 2 lb/acre): 100%
- pest or weed control at 4483.4 g/ha ([8]; 4 lb/acre): 100%
- pest or weed control at 8966.8 g/ha ([8]; 8 lb/acre): 100%
- pest or weed control at 2241.7 g/ha ([9]; 2 lb/acre): 0%
- pest or weed control at 4483.4 g/ha ([9]; 4 lb/acre): 0%
- pest or weed control at 8966.8 g/ha ([9]; 8 lb/acre): 100%
- pest or weed control ([10]; 2 lb/acre): 100%
- pest or weed control at 4483.4 g/ha ([10]; 4 lb/acre): 90%
- pest or weed control at 8966.8 g/ha ([10]; 8 lb/acre): 100%
- pest or weed control at 2241.7 g/ha ([11]; 2 lb/acre): 90%
- pest or weed control at 4483.4 g/ha ([11]; 4 lb/acre): 50%
- pest or weed control at 8966.8 g/ha ([11]; 8 lb/acre): 100%
- pest or weed control at 4483.4 g/ha ([12]; 4 lb/acre): 100%
- pest or weed control at 8966.8 g/ha ([12]; 8 lb/acre): 100%
- pest or weed control at 2241.7 g/ha ([13]; 2 lb/acre): 100%
- pest or weed control at 4483.4 g/ha ([13]; 4 lb/acre): 100%
- pest or weed control at 8966.8 g/ha ([13]; 8 lb/acre): 100%
- pest or weed control at 2241.7 g/ha ([14]; 2 lb/acre): 20%
- pest or weed control at 4483.4 g/ha ([14]; 4 lb/acre): 40%
- pest or weed control at 8966.8 g/ha ([14]; 8 lb/acre): 70%
- pest or weed control at 2241.7 g/ha ([15]; 2 lb/acre): 40%
- pest or weed control at 4483.4 g/ha ([15]; 4 lb/acre): 60%
- pest or weed control ([16]; 2 lb/acre): 80%
- pest or weed control at 4483.4 g/ha ([16]; 4 lb/acre): 50%
- pest or weed control at 8966.8 g/ha ([16]; 8 lb/acre): 100%
